Measurements as given in ChEMBL document CHEMBL1130680, “Restricting the flexibility of crosslinked, interfacial peptide inhibitors of HIV-1 protease” (Bioorg Med Chem Lett, 1998).

Target: Human immunodeficiency virus type 1 protease (Human immunodeficiency virus 1, UniProt Q72874)
Test: Inhibition of HIV-1 protease by fluorogenic substrate assay

| Compound | IC50 |
| --- | --- |
| CC[C@H](C)[C@H](NC(=O)[C@H](CCC(N)=O)NC(=O)[C@@H]1CCCN1C(=O)CCCCCC#CCCCCCC(=O)N[C@H](CO)C(=O)N[C@@H](C(=O)N[C@H](CC(C)C)C(=O)N[C@H](CC(N)=O)C(=O)N[C@H](Cc1ccccc1)C(=O)O)[C@H](C)O)C(=O)N[C@H](C(=O)N[C@@H](CC(C)C)C(=O)N[C@@H](Cc1c[nH]c2ccccc12)C(=O)O)[C@@H](C)O | 21 µM |
| CC[C@H](C)[C@H](NC(=O)[C@H](CCC(N)=O)NC(=O)[C@@H]1CCCN1C(=O)CCCCCCC/C=C/CCCCCCCC(=O)N[C@H](CO)C(=O)N[C@@H](C(=O)N[C@H](CC(C)C)C(=O)N[C@H](CC(N)=O)C(=O)N[C@H](Cc1ccccc1)C(=O)O)[C@H](C)O)C(=O)N[C@H](C(=O)N[C@@H](CC(C)C)C(=O)N[C@@H](Cc1c[nH]c2ccccc12)C(=O)O)[C@@H](C)O | 6.3 µM |
| CC[C@H](C)[C@H](NC(=O)[C@H](CCC(N)=O)NC(=O)[C@@H]1CCCN1C(=O)CCCCCC/C=C\CCCCCCC(=O)N[C@H](CO)C(=O)N[C@@H](C(=O)N[C@H](CC(C)C)C(=O)N[C@H](CC(N)=O)C(=O)N[C@H](Cc1ccccc1)C(=O)O)[C@H](C)O)C(=O)N[C@H](C(=O)N[C@@H](CC(C)C)C(=O)N[C@@H](Cc1c[nH]c2ccccc12)C(=O)O)[C@@H](C)O | 12.9 µM |
| CC[C@H](C)[C@H](NC(=O)[C@H](CCC(N)=O)NC(=O)[C@@H]1CCCN1C(=O)CCCCCCCC#CCCCCCCCC(=O)N[C@H](CO)C(=O)N[C@@H](C(=O)N[C@H](CC(C)C)C(=O)N[C@H](CC(N)=O)C(=O)N[C@H](Cc1ccccc1)C(=O)O)[C@H](C)O)C(=O)N[C@H](C(=O)N[C@@H](CC(C)C)C(=O)N[C@@H](Cc1c[nH]c2ccccc12)C(=O)O)[C@@H](C)O | 7.2 µM |
| CC[C@H](C)[C@H](NC(=O)[C@H](CCC(N)=O)NC(=O)[C@@H]1CCCN1C(=O)CCCCCCC#CCCCCCCC(=O)N[C@H](CO)C(=O)N[C@@H](C(=O)N[C@H](CC(C)C)C(=O)N[C@H](CC(N)=O)C(=O)N[C@H](Cc1ccccc1)C(=O)O)[C@H](C)O)C(=O)N[C@H](C(=O)N[C@@H](CC(C)C)C(=O)N[C@@H](Cc1c[nH]c2ccccc12)C(=O)O)[C@@H](C)O | 4.5 µM |
| CC[C@H](C)[C@H](NC(=O)[C@H](CCC(N)=O)NC(=O)[C@@H]1CCCN1C(=O)CCCCCCCCCCCCCCC(=O)N[C@H](CO)C(=O)N[C@@H](C(=O)N[C@H](CC(C)C)C(=O)N[C@H](CC(N)=O)C(=O)N[C@H](Cc1ccccc1)C(=O)O)[C@H](C)O)C(=O)N[C@H](C(=O)N[C@@H](CC(C)C)C(=O)N[C@@H](Cc1c[nH]c2ccccc12)C(=O)O)[C@@H](C)O | 2 µM |
| CC[C@H](C)[C@H](NC(=O)[C@H](CCC(N)=O)NC(=O)[C@@H]1CCCN1C(=O)CCCCC/C=C\CCCCCC(=O)N[C@H](CO)C(=O)N[C@@H](C(=O)N[C@H](CC(C)C)C(=O)N[C@H](CC(N)=O)C(=O)N[C@H](Cc1ccccc1)C(=O)O)[C@H](C)O)C(=O)N[C@H](C(=O)N[C@@H](CC(C)C)C(=O)N[C@@H](Cc1c[nH]c2ccccc12)C(=O)O)[C@@H](C)O | 32.7 µM |
| CC[C@H](C)[C@H](NC(=O)[C@H](CCC(N)=O)NC(=O)[C@@H]1CCCN1C(=O)CCCCCCCCCCCCCCCCC(=O)N[C@H](CO)C(=O)N[C@@H](C(=O)N[C@H](CC(C)C)C(=O)N[C@H](CC(N)=O)C(=O)N[C@H](Cc1ccccc1)C(=O)O)[C@H](C)O)C(=O)N[C@H](C(=O)N[C@@H](CC(C)C)C(=O)N[C@@H](Cc1c[nH]c2ccccc12)C(=O)O)[C@@H](C)O | 4 µM |
| CC[C@H](C)[C@H](NC(=O)[C@H](CCC(N)=O)NC(=O)[C@@H]1CCCN1C(=O)CCCCC/C=C/CCCCCC(=O)N[C@H](CO)C(=O)N[C@@H](C(=O)N[C@H](CC(C)C)C(=O)N[C@H](CC(N)=O)C(=O)N[C@H](Cc1ccccc1)C(=O)O)[C@H](C)O)C(=O)N[C@H](C(=O)N[C@@H](CC(C)C)C(=O)N[C@@H](Cc1c[nH]c2ccccc12)C(=O)O)[C@@H](C)O | 51.5 µM |
| CC[C@H](C)[C@H](NC(=O)[C@H](CCC(N)=O)NC(=O)[C@@H]1CCCN1C(=O)CCCCCCC/C=C\CCCCCCCC(=O)N[C@H](CO)C(=O)N[C@@H](C(=O)N[C@H](CC(C)C)C(=O)N[C@H](CC(N)=O)C(=O)N[C@H](Cc1ccccc1)C(=O)O)[C@H](C)O)C(=O)N[C@H](C(=O)N[C@@H](CC(C)C)C(=O)N[C@@H](Cc1c[nH]c2ccccc12)C(=O)O)[C@@H](C)O | 4.4 µM |
| CC[C@H](C)[C@H](NC(=O)[C@H](CCC(N)=O)NC(=O)[C@@H]1CCCN1C(=O)CCCCCCCCCCCCC(=O)N[C@H](CO)C(=O)N[C@@H](C(=O)N[C@H](CC(C)C)C(=O)N[C@H](CC(N)=O)C(=O)N[C@H](Cc1ccccc1)C(=O)O)[C@H](C)O)C(=O)N[C@H](C(=O)N[C@@H](CC(C)C)C(=O)N[C@@H](Cc1c[nH]c2ccccc12)C(=O)O)[C@@H](C)O | 13 µM |
| CC[C@H](C)[C@H](NC(=O)[C@H](CCC(N)=O)NC(=O)[C@@H]1CCCN1C(=O)CCCCCC/C=C/CCCCCCC(=O)N[C@H](CO)C(=O)N[C@@H](C(=O)N[C@H](CC(C)C)C(=O)N[C@H](CC(N)=O)C(=O)N[C@H](Cc1ccccc1)C(=O)O)[C@H](C)O)C(=O)N[C@H](C(=O)N[C@@H](CC(C)C)C(=O)N[C@@H](Cc1c[nH]c2ccccc12)C(=O)O)[C@@H](C)O | 17.5 µM |
